Data: patent publication US20110269763A1, “CRTH2 receptor ligands for medicinal uses” (7TM Pharma A/S, priority 2004, published 2011)

Legend:
human CRTH2 [1] = target: T1, human CRTH2 (Homo sapiens, UniProt Q9Y5Y4, V204A); assay: Functional antagonist BRET assay on HEK293 cells stably expressing human CRTH2-Rluc and GFP2-β-arr2; type: cell-based; parameters: expressed in transfected cells; conditions: read-out: Antag. IC50
T1 sequence (Q9Y5Y4 1-395 V204A): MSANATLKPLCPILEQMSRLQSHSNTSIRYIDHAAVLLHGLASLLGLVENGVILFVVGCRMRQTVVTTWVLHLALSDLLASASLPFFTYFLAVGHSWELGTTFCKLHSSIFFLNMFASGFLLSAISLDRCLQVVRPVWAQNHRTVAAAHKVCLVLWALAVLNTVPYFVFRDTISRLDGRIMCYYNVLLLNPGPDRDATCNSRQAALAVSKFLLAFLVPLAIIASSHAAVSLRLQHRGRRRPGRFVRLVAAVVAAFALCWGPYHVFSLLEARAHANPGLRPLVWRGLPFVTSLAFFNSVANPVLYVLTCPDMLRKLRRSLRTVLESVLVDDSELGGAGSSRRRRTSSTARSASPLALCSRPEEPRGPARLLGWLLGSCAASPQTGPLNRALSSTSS
In short: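 Cells (2×10^6/mL in D-PBS with glucose) were preincubated 15 min with antagonist at 1% DMSO, then agonist and DeepBlueC were co-injected. Emission at 400 and 515 nm was read 5 s later, and the mBRET ratio (515/400 nm) was used to derive IC50 from concentration–response curves.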

human CRTH2 [2] = target: T1, human CRTH2; assay: Receptor binding assay: [3H]PGD2 competition binding on whole COS-7 cells transiently transfected with CRTH2 (also stable HEK293 cells); parameters: expressed in transfected cells; host or cells: COS-7 (transient, calcium phosphate)
In short: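 Whole COS-7 cells transiently transfected with human CRTH2 (calcium phosphate), or stable HEK293 cells, competed against 0.1 nM [3H]PGD2 in HBSS/10 mM HEPES with 1% DMSO, 3 h at 4 °C. Nonspecific binding with 10 μM PGD2; scintillation counting, duplicates. IC50 from curve fitting.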

[3] = functional antagonist assay, Table 3
[4] = receptor binding assay, Table 3
[5] = BRET, antagonist incubated 15 minutes prior to agonist
[6] = competition with 0.1 nM [3H]PGD2, whole cells, 3 h at 4° C.

Row | SMILES | IC50 (human CRTH2 [1]; [3]) [nM] | IC50 (human CRTH2 [2]; [4]) [nM] | IC50 (human CRTH2 [1]; [5]) [nM] | IC50 (human CRTH2 [2]; [6]) [nM]
1 | O=C(O)COc1ccc(Br)cc1-c1nc(-c2cc(C(F)(F)F)cc(C(F)(F)F)c2)no1 [D109, {2-[3-(3,5-Bis-trifluoromethyl-phenyl)-[1,2,4]oxadiazol-5-yl]-4-bromo-phenoxy}-acetic acid] | > 5000 | < 500 |  | 
2 | O=C(O)COc1ccc(Br)cc1-c1nc(-c2c(Cl)cccc2Cl)no1 [D110, {4-Bromo-2-[3-(2,6-dichlorophenyl)-[1,2,4]oxadiazol-5-yl]phenoxy}acetic acid] | < 500 | < 500 |  | 
3 | O=C(O)COc1ccc(Br)cc1-c1nc(-c2ccc(Oc3ccccc3)cc2)no1 [D111, {4-Bromo-2-[3-(4-phenoxy-phenyl)-[1,2,4]oxadiazol-5-yl]-phenoxy}-acetic acid] | < 500 | < 500 |  | 
4 | O=C(O)COc1ccc(Br)cc1-c1nc(-c2cccc(C(F)(F)F)c2)no1 [D112, {4-Bromo-2-[3-(3-trifluoromethylphenyl)-[1,2,4]oxadiazol-5-yl]phenoxy}-acetic acid] | < 500 | < 500 |  | 
5 | O=C(O)COc1ccc(Br)cc1-c1nc(Cc2ccc(OC(F)(F)F)cc2)no1 [D113, {4-Bromo-2-[3-(4-trifluoromethoxy-benzyl)-[1,2,4]oxadiazol-5-yl]-phenoxy}-acetic acid] | < 500 | < 500 |  | 
6 | O=C(O)COc1ccc(Br)cc1-c1nc(Cc2ccc(Cl)cc2)no1 [D114, {4-Bromo-2-[3-(4-chloro-benzyl)-[1,2,4]oxadiazol-5-yl]-phenoxy}-acetic acid] | < 500 | < 500 |  | 
7 | O=C(O)COc1ccc(Br)cc1-c1nc(Cc2ccccc2)no1 [D115, [2-(3-Benzyl-[1,2,4]oxadiazol-5-yl)-4-bromo-phenoxy]-acetic acid] | < 500 | < 500 |  | 
8 | O=C(O)COc1ccc(Br)cc1-c1nc(Cc2ccc(F)cc2)no1 [D116, {4-Bromo-2-[3-(4-fluoro-benzyl)-[1,2,4]oxadiazol-5-yl]-phenoxy}-acetic acid] | < 500 | < 500 |  | 
9 | O=C(O)COc1ccc(Br)cc1-c1nc(Cc2cc(F)cc(F)c2)no1 [D117, {4-Bromo-2-[3-(3,5-difluoro-benzyl)-[1,2,4]oxadiazol-5-yl]-phenoxy}-acetic acid] | < 500 | < 500 |  | 
10 | COc1ccc(Cc2noc(-c3cc(Br)ccc3OCC(=O)O)n2)cc1 [D118, {4-Bromo-2-[3-(4-methoxy-benzyl)-[1,2,4]oxadiazol-5-yl]-phenoxy}-acetic acid] | < 500 | < 500 |  | 
11 | COc1ccccc1Cc1noc(-c2cc(Br)ccc2OCC(=O)O)n1 [D119, {4-Bromo-2-[3-(2-methoxy-benzyl)-[1,2,4]oxadiazol-5-yl]-phenoxy}-acetic acid] | < 500 | < 500 |  | 
12 | O=C(O)COc1ccc(Br)cc1-c1nc(Cc2ccccc2Cl)no1 [D120, {4-Bromo-2-[3-(2-chloro-benzyl)-[1,2,4]oxadiazol-5-yl]-phenoxy}-acetic acid] | < 500 | < 500 |  | 
13 | O=C(O)COc1ccc(Br)cc1-c1nc(Cc2c(Cl)cccc2Cl)no1 [D121, {4-Bromo-2-[3-(2,6-dichloro-benzyl)-[1,2,4]oxadiazol-5-yl]-phenoxy}-acetic acid] | < 500 | < 500 |  | 
14 | O=C(O)COc1ccc(Br)cc1-c1nc(Cc2ccc(Cl)cc2Cl)no1 [D122, {4-Bromo-2-[3-(2,4-dichloro-benzyl)-[1,2,4]oxadiazol-5-yl]-phenoxy}-acetic acid] | < 500 | < 500 |  | 
15 | O=C(O)COc1ccc(Br)cc1-c1nc(Cc2ccc(Cl)c(Cl)c2)no1 [D123, {4-Bromo-2-[3-(3,4-dichlorobenzyl)-[1,2,4]oxadiazol-5-yl]-phenoxy}acetic acid] | < 500 | < 500 |  | 
16 | COc1ccc(Cc2noc(-c3cc(Br)ccc3OCC(=O)O)n2)cc1OC [D124, {4-Bromo-2-[3-(3,4-dimethoxybenzyl)-[1,2,4]oxadiazol-5-yl]phenoxy}-acetic acid] | < 500 | < 500 |  | 
17 | COc1cccc(Cc2noc(-c3cc(Br)ccc3OCC(=O)O)n2)c1 [D125, {4-Bromo-2-[3-(3-methoxybenzyl)-[1,2,4]oxadiazol-5-yl]phenoxy}acetic acid] | > 5000 | < 500 |  | 
18 | Cc1ccc(Cc2noc(-c3cc(Br)ccc3OCC(=O)O)n2)cc1 [D126, {4-Bromo-2-[3-(4-methylbenzyl)-[1,2,4]oxadiazol-5-yl]phenoxy}acetic acid] | < 500 | < 500 |  | 
19 | O=C(O)COc1ccc(Br)cc1-c1nc(Cc2ccccc2C(F)(F)F)no1 [D127, {4-Bromo-2-[3-(2-trifluoromethylbenzyl)-[1,2,4]oxadiazol-5-yl]phenoxy}-acetic acid] | < 500 | < 500 |  | 
20 | COc1cc(Cc2noc(-c3cc(Br)ccc3OCC(=O)O)n2)cc(OC)c1 [D128, {4-Bromo-2-[3-(3,5-dimethoxybenzyl)-[1,2,4]oxadiazol-5-yl]phenoxy}acetic acid] | 500 to 5000 | < 500 |  | 
21 | O=C(O)COc1ccc(Br)cc1-c1nc(-c2ccc(Cl)cc2Cl)no1 [D129, {4-Bromo-2-[3-(2,4-dichlorophenyl)-[1,2,4]oxadiazol-5-yl]phenoxy}acetic acid] | < 500 | < 500 |  | 
22 | O=C(O)COc1ccc(Br)cc1-c1nc(Cc2cccc(Cl)c2)no1 [D130, {4-Bromo-2-[3-(3-chlorobenzyl)-[1,2,4]oxadiazol-5-yl]phenoxy}acetic acid] | < 500 | < 500 |  | 
23 | CC(=O)Nc1ccc(Cc2noc(-c3cc(Br)ccc3OCC(=O)O)n2)cc1 [D131, {2-[3-(4-Acetylaminobenzyl)-[1,2,4]oxadiazol-5-yl]-4-bromophenoxy}acetic acid] | < 500 | < 500 |  | 
24 | O=C(O)COc1ccc(Br)cc1-c1nc(C2(c3ccccc3)CC2)no1 [D132, {4-Bromo-2-[3-(1-phenylcyclopropyl)-[1,2,4]oxadiazol-5-yl]phenoxy}acetic acid] |  |  | < 500 | < 500
25 | O=C(O)COc1ccc(Br)cc1-c1nc(-c2ccccn2)no1 [D133, [4-Bromo-2-(3-pyridin-[1,2,4]oxadiazol-5-yl)phenoxy]acetic acid] |  |  | > 5000 | < 500
26 | COc1ccc(-c2ccc(-c3nc(-c4cc(Br)ccc4OCC(=O)O)no3)cc2)cc1 [D134, {4-Bromo-2-[5-(4′-methoxybiphenyl-4-yl)-[1,2,4]oxadiazol-3-yl]phenoxy}acetic acid] |  |  | < 500 | < 500
27 | O=C(O)COc1ccc(Br)cc1-c1noc(-c2ccc(Cl)cc2)n1 [D135, {4-Bromo-2-[5-(4-chlorophenyl)-[1,2,4]oxadiazol-3-yl]phenoxy}acetic acid] |  |  | < 500 | < 500
28 | O=C(O)COc1ccc(Br)cc1-c1noc(-c2cccc(Cl)c2)n1 [D136, {4-Bromo-2-[5-(3-chlorophenyl)-[1,2,4]oxadiazol-3-yl]phenoxy}acetic acid] |  |  | < 500 | < 500
29 | O=C(O)COc1ccc(Br)cc1-c1noc(-c2ccccc2Cl)n1 [D137, {4-Bromo-2-[5-(2-chlorophenyl)-[1,2,4]oxadiazol-3-yl]phenoxy}acetic acid] |  |  | < 500 | < 500
30 | O=C(O)COc1ccc(Br)cc1-c1noc(-c2ccccc2)n1 [D138, [4-Bromo-2-(5-phenyl-[1,2,4]oxadiazol-3-yl)phenoxy]acetic acid] |  |  | > 5000 | < 500
